Structures can show the parent of a compound that is named as a salt. Where two headings read alike, the source gives them in different places.
Target: T1, ENaC (Epithelial Sodium Channel) (Mus musculus, UniProt Q61180+Q9WU38+Q9WU39)
T1 construct: Mouse kidney M−1 cells were cultivated in DMEM; endogenous in cells; host or cells: Mouse kidney M-1 cells, cultivated with dexamethasone on transwell filters
T1 sequence (Q61180 1-699): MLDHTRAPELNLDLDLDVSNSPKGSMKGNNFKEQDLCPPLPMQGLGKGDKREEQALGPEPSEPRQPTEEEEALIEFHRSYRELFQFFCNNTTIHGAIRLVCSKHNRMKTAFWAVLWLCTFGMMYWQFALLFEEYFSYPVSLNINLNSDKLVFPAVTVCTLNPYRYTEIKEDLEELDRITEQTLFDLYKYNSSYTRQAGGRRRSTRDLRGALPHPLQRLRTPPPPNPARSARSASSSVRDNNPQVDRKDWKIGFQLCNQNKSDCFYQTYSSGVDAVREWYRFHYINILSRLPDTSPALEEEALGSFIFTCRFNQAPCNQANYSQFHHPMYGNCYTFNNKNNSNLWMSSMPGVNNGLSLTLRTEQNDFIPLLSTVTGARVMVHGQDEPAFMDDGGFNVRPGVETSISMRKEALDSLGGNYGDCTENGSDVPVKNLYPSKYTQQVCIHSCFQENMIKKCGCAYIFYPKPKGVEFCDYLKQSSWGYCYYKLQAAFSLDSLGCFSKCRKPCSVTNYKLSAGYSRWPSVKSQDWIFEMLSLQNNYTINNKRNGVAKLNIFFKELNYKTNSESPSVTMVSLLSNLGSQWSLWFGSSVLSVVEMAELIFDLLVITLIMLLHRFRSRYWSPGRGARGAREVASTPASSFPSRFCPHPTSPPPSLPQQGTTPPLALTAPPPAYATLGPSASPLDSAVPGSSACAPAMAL
T1 sequence (Q9WU38 1-638): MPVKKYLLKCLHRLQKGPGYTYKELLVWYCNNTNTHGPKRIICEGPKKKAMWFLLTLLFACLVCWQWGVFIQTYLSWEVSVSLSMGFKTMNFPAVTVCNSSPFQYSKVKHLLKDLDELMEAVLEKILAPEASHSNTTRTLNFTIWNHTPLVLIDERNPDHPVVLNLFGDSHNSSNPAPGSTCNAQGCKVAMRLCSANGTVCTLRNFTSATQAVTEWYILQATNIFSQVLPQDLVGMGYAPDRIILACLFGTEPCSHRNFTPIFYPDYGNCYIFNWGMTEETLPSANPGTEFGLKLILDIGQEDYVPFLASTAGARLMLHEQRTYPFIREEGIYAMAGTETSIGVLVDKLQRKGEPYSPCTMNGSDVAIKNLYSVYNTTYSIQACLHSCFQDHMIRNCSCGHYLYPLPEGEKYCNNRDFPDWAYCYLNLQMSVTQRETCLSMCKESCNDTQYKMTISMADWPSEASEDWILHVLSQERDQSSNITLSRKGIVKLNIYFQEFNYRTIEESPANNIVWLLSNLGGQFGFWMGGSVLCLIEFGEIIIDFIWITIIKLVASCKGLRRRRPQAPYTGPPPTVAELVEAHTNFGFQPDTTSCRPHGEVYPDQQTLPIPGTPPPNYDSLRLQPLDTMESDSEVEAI
T1 sequence (Q9WU39 1-655): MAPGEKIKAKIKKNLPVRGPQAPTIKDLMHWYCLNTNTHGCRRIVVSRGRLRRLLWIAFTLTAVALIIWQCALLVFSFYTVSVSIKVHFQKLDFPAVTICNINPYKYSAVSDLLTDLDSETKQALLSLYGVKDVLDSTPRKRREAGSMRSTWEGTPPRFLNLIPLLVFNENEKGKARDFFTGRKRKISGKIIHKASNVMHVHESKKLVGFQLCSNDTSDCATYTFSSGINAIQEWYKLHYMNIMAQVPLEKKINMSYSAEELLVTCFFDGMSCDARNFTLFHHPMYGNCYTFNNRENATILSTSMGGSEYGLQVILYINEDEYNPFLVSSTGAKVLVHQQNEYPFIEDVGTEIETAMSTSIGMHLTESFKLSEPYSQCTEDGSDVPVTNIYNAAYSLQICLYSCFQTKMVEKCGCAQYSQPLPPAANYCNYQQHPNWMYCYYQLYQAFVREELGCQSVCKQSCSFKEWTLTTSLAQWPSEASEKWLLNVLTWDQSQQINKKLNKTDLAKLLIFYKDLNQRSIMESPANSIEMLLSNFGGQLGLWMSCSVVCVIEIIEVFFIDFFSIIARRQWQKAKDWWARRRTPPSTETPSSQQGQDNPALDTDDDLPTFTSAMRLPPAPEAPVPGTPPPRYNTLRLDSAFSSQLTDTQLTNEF
Assay: Ussing Chamber assay (short circuit current, amiloride sensitive I_SC)
Format: cell-based
Procedure: The IC50 values of the example compounds given above were determined in the Ussing Chamber assay.
Ussing Chamber: Mouse kidney M−1 cells were cultivated in DMEM containing 5% FCS and 5 μM dexamethasone for 10 to 12 days on polyester transwell filters. Filters were inserted into a teflon-coated well-plate which fit into the ussing chamber system. Prior to measurement the medium of M−1 cells was replaced with Caco-2 transport buffer (Invitrogen, Germany). During measurements, the Ussing chamber temperature was kept at 37° C. Short circuit currents (I_sc) were measured in the voltage-clamp mode with the software package Lab View for data acquisition and analysis. The transepithelial electrical resistance (TEER) was determined by the application of voltage steps of ±5 mV every 5 sec. Compounds were administered at a final concentration of 3 μM or at increasing concentrations (1-3-10 μM) to the apical solution. At the end of each experiment the amiloride sensitive I_SC was measured by adding 3 μM amiloride to the apical compartment. Results are expressed as inhibition in percent of the amiloride effect or as IC50.

[1] = Ussing chamber, mouse kidney M-1 cells, short circuit current, unit inferred, read-out: IC50
[2] = Ussing chamber, mouse kidney M-1 cells, short circuit current, value printed in the example text with μM, read-out: IC50
[3] = Ussing chamber, mouse kidney M-1 cells, short circuit current, compound added to the apical solution, read-out: IC50

IC50 [3] [µM] | SMILES | other results
– | CN(C)CCOc1ccc(CCC[N+]2(CCCc3ccc(OCCN(C)C)cc3)CCC[C@H](NC(=O)c3nc(Cl)c(N)nc3N)C2)cc1 [Example 9.5, 3-[(3,5-Diamino-6-chloro-pyrazine-2-carbonyl)-amino]-1,1-bis-{3-[4-(2-dimethylamino-ethoxy)-phenyl]-propyl}-piperidinium chloride dihydrochloride] | IC50 [1]: 0.063 µM
– | Nc1nc(N)c(C(=O)NC2CCC[N+](CCCc3ccc(C(=O)NCCOCCOCCO)cc3)(CCCc3ccc(C(=O)NCCOCCOCCO)cc3)C2)nc1Cl (stereo not shown) [Example 4.2, 3-[(3,5-Diamino-6-chloro-pyrazine-2-carbonyl)-amino]-1,1-bis-[3-(4-{2-[2-(2-hydroxyethoxy)-ethoxy)]-ethylcarbamoyl}-phenyl)-propyl]-piperidinium chloride] | IC50 [2]: 0.76 µM
– | COc1ccc(CCC[N+]2(CCCc3ccc(C(=O)[O-])cc3)CCCC(NC(=O)c3nc(Cl)c(N)nc3N)C2)cc1 (stereo not shown) [Example 5.1, 1-[3-(4-Carboxy-phenyl)-propyl]-3-[(3,5-diamino-6-chloro-pyrazine-2-carbonyl)-amino]-1-[3-(4-methoxy-phenyl)-propyl]-piperidinium] | IC50 [2]: 0.11 µM
0.26 | COc1ccc(CCC[N+]2(CCCc3ccc(C(=O)NCCCS(=O)(=O)O)cc3)CCCC(NC(=O)c3nc(Cl)c(N)nc3N)C2)cc1 (stereo not shown) [Example 5.4] | –
0.039 | CN1CCN(C(=O)COc2ccc(CCC[N+]3(CCCc4ccc(OCC(=O)N5CCN(C)CC5)cc4)CCC[C@H](NC(=O)c4nc(Cl)c(N)nc4N)C3)cc2)CC1 [Example 6.53] | –
0.021 | Cn1ccnc1CNC(=O)COc1ccc(CCC[N+]2(CCCc3ccc(OCC(=O)NCc4nccn4C)cc3)CCC[C@H](NC(=O)c3nc(Cl)c(N)nc3N)C2)cc1 [Example 6.33] | –
0.044 | COc1ccc(CCC[N+]2(CCCc3ccc(OC)cc3)CCCCC(NC(=O)c3nc(Cl)c(N)nc3N)C2)cc1 (stereo not shown) [Example 1.3] | –
0.011 | Nc1nc(N)c(C(=O)N[C@H]2CCC[N+](CCCc3ccc(OCC(=O)NC(CO)c4cccnc4)cc3)(CCCc3ccc(OCC(=O)NC(CO)c4cccnc4)cc3)C2)nc1Cl (stereo partly shown) [Example 6.39] | –
– | COC(=O)c1ccc(CCC[N+]2(CCCc3ccc(OC)cc3)CCCC(NC(=O)c3nc(Cl)c(N)nc3N)C2)cc1 (stereo not shown) [Example 5, 3-[(3,5-Diamino-6-chloro-pyrazine-2-carbonyl)-amino]-1-[3-(4-methoxycarbonyl-phenyl)propyl]-1-[3-(4-methoxy-phenyl)-propyl]-piperidinium chloride] | IC50 [2]: 0.038 µM
0.013 | Nc1nc(N)c(C(=O)N[C@H]2CCC[N+](CCCc3ccc(OCC(=O)NCCCO)cc3)(CCCc3ccc(OCC(=O)NCCCO)cc3)C2)nc1Cl [Example 6.18] | –
0.07 | CC(O)CN(C)C(=O)COc1ccc(CCC[N+]2(CCCc3ccc(OCC(=O)N(C)CC(C)O)cc3)CCC[C@H](NC(=O)c3nc(Cl)c(N)nc3N)C2)cc1 (stereo partly shown) [Example 6.26] | –
– | CCOc1ccc(CCC[N+]2(CCCc3ccc(OCC)cc3)CCCC(NC(=O)c3nc(Cl)c(N)nc3N)C2)cc1 (stereo not shown) [Example 9.2, 3-[(3,5-Diamino-6-chloro-pyrazine-2-carbonyl)-amino]-1,1-bis-[3-(4-ethoxy-phenyl)-propyl]-piperidinium chloride] | IC50 [1]: 0.026 µM
– | COC(=O)COc1ccc(CCC[N+]2(CCCc3ccc(OCC(=O)OC)cc3)CCCC(NC(=O)c3nc(Cl)c(N)nc3N)C2)cc1 (stereo not shown) [Example 6, 3-[(3,5-Diamino-6-chloro-pyrazine-2-carbonyl)-amino]-1,1-bis-[3-(4-methoxycarbonylmethoxy-phenyl)-propyl]-piperidinium trifluoroacetate] | IC50 [2]: 0.02 µM
– | Nc1nc(N)c(C(=O)NC2CCC[N+](CCCc3ccc(O)cc3)(CCCc3ccc(O)cc3)C2)nc1Cl (stereo not shown) [Example 6.15, 3-[(3,5-Diamino-6-chloro-pyrazine-2-carbonyl)-amino]-1,1-bis-[3-(4-hydroxy-phenyl)propyl]-piperidinium trifluoroacetate] | IC50: 0.013 µM
0.07 | COc1ccc(CCC[N@@+]2(C)CCC[C@H](NC(=O)c3nc(Cl)c(N)nc3N)C2)cc1 [Example 3.2] | –
0.232 | CN(C)C(=O)CN(C)C(=O)COc1ccc(CCC[N+]2(CCCc3ccc(OCC(=O)N(C)CC(=O)N(C)C)cc3)CCC[C@H](NC(=O)c3nc(Cl)c(N)nc3N)C2)cc1 [Example 6.32] | –
0.007 | COCCCNC(=O)COc1ccc(CCC[N+]2(CCCc3ccc(OCC(=O)NCCCOC)cc3)CCC[C@H](NC(=O)c3nc(Cl)c(N)nc3N)C2)cc1 [Example 6.60] | –
– | Nc1nc(N)c(C(=O)NC2CCC[N+](CCCc3ccc(C(=O)[O-])cc3)(CCCc3ccc(C(=O)O)cc3)C2)nc1Cl (stereo not shown) [Example 4.1, 1,1-Bis-[3-(4-carboxy-phenyl)-propyl]-3-[(3,5-diamino-6-chloro-pyrazine-2-carbonyl)amino]-piperidinium] | IC50 [2]: 0.35 µM
0.025 | Nc1nc(N)c(C(=O)N[C@H]2CCC[N+](CCCc3ccc(OCC(=O)NCCOCCO)cc3)(CCCc3ccc(OCC(=O)NCCOCCO)cc3)C2)nc1Cl [Example 6.55] | –
0.064 | CS(=O)(=O)CCCNC(=O)COc1ccc(CCC[N+]2(CCCc3ccc(OCC(=O)NCCCS(C)(=O)=O)cc3)CCC[C@H](NC(=O)c3nc(Cl)c(N)nc3N)C2)cc1 [Example 6.43] | –
0.092 | Nc1nc(N)c(C(=O)N[C@H]2CCC[N+](CCCc3ccc(OCC(=O)N4CCC(O)CC4)cc3)(CCCc3ccc(OCC(=O)N4CCC(O)CC4)cc3)C2)nc1Cl [Example 6.56] | –
0.006 | Nc1nc(N)c(C(=O)N[C@H]2CCC[N+](CCCc3ccc(OCC(=O)NCCc4ccccn4)cc3)(CCCc3ccc(OCC(=O)NCCc4ccccn4)cc3)C2)nc1Cl [Example 6.50] | –
0.034 | COc1ccc(CCC[N+]2(CCCCc3ccccc3)CCCC(NC(=O)c3nc(Cl)c(N)nc3N)C2)cc1 (stereo not shown) [Example 3.4] | –
– | Nc1nc(N)c(C(=O)NC2CCC[N+](CCCc3ccc(OCC(=O)NCCOCCOCCO)cc3)(CCCc3ccc(OCC(=O)NCCOCCOCCO)cc3)C2)nc1Cl (stereo not shown) [Example 6.3, 3-[(3,5-Diamino-6-chloro-pyrazine-2-carbonyl)-amino]-1,1-bis-{3-[4-({2-[2-(2-hydroxyethoxy)-ethoxy]-ethylcarbamoyl}-methoxy)-phenyl]-propyl}-piperidinium trifluoroacetate] | IC50 [1]: 0.103 µM
0.041 | CN(C)C(=O)CNC(=O)COc1ccc(CCC[N+]2(CCCc3ccc(OCC(=O)NCC(=O)N(C)C)cc3)CCC[C@H](NC(=O)c3nc(Cl)c(N)nc3N)C2)cc1 [Example 6.28] | –
